Measurements as given in PubChem BioAssay AID743236 (The Scripps Research Institute Molecular Screening Center, 2013).
Active and inactive are the calls of the source. The rule behind the calls is not given here.

test system: Ga16-expressing cells, calcium fluorescence, agonist counterscreen; assay: nonselective Ga16 agonists, potency, late-stage follow-up, counter-screen for TAAR1 antagonist project, cell-based, fluorescence, dose response (AID 743236)

Structure (SMILES) | EC50
Cc1cccc(C(C#N)c2nc3ccccc3nc2C(F)(F)F)c1 (centres undefined) | > 29.9 µM (inactive)
CCCCC(=O)Nc1ccc(C(=O)Nc2ccc(S(=O)(=O)N3CCCC3)cc2)cc1 | > 29.9 µM (inactive)
CC(=O)c1ccc(NC(=O)c2ccc(COc3ccccc3[N+](=O)[O-])o2)cc1 | > 29.9 µM (inactive)
Cc1nn(Cc2c(F)c(F)c(F)c(F)c2F)c(C)c1NC(=O)c1ccc(COc2ccccc2Cl)cc1 | > 29.9 µM (inactive)
O=C(NCCn1cc(SCc2ccccc2F)c2ccccc21)c1c(F)cccc1F | > 29.9 µM (inactive)
COc1cc(NC(=O)c2cc3ccccc3o2)c(OC)cc1Cl | > 29.9 µM (inactive)
Cc1ccc(CSCC(=O)Nc2cc(S(=O)(=O)N3CCOCC3)ccc2OCC(F)(F)F)cc1 | > 29.9 µM (inactive)
Cc1coc(NC(=O)CSc2nc(-c3ccc(Cl)cc3)cc(C(F)(F)F)c2C#N)n1 | > 29.9 µM (inactive)
COc1cccc(-c2nn(-c3ccccc3)cc2C(=O)Nc2nccs2)c1 | > 29.9 µM (inactive)
